31 compounds from patent publication US8163778B2 (Hoffmann-LA Roche Inc., priority 2007, dated 2012) can be followed below.

A value given as a limit tells only on which side of the number the result lay.

The target in this assay is T1, human liver FBPase (Homo sapiens, UniProt P09467).
T1 construct: made in house; host or cells: E. coli
T1 sequence (P09467 2-338 limits assumed): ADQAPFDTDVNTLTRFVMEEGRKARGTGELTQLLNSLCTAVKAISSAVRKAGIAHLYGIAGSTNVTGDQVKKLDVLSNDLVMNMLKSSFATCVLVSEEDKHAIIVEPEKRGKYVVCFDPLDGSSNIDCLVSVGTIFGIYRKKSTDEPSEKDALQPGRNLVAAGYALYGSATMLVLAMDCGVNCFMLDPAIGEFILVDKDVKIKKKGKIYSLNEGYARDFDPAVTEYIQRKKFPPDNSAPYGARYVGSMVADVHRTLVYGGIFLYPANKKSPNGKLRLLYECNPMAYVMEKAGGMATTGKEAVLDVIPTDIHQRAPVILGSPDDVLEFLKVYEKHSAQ
The experiment in a line: FBPase assay (malachite green phosphate release). It counts as biochemical. To be noted: recombinant human liver FBPase, 50 μM fructose-1,6-bisphosphate. The gist of the method: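 Recombinant human liver FBPase (E. coli-expressed, heat-treated, purified) reacted with 50 μM fructose-1,6-bisphosphate in pH 7.2 HEPES, 2 mM MgCl2, 1% DMSO, 50 min at room temperature. Released phosphate quantified with malachite green/ammonium molybdate reagent at 620 nm.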

The IC50 is the concentration that gives 50% inhibition.

On to `CNC(=O)Nc1cc(OC)cc(NC(=O)NS(=O)(=O)c2cn(C)c3c(OCC(=O)N(C)C)cccc23)n1` [Compound 70, 2-[(3-{[({4-Methoxy-6-[(methylcarbamoyl)amino]pyridin-2-yl}carbamoyl)amino]sulfonyl}-1-methyl-1H-indol-7-yl)oxy]-N,N-dimethylacetamide], for which the half-inhibitory concentration (IC50) was 3430 nM. The same measure for `COCCc1sc(S(=O)(=O)NC(=O)Nc2cc(SC)cc(O)n2)cc1C` [Compound 71, N-{[6-Hydroxy-4-(methylthio)pyridin-2-yl]carbamoyl}-5-(2-methoxyethyl)-4-methylthiophene-2-sulfonamide]: 4030 nM; for `Cc1cccc(S(=O)(=O)NC(=O)Nc2cccc(Cl)n2)c1` [Compound 72, N-[(6-Chloropyridin-2-yl)carbamoyl]-3-methylbenzenesulfonamide]: 4600 nM; for `COCCc1sc(S(=O)(=O)NC(=O)Nc2cc(SC)cc(NCCCC(=O)OC)n2)cc1C` [Compound 73, Methyl-4-({6-[({[5-(2-methoxyethyl)-4-methyl-2-thienyl]sulfonyl}carbamoyl)amino]-4-(methylthio)pyridin-2-yl}amino)butanoate]: 1740 nM. In the case of `COCCc1sc(S(=O)(=O)NC(=O)Nc2cc(SC)cc(NCCCO)n2)cc1C` [Compound 74, N-({6-[(3-Hydroxypropyl)amino]-4-(methylthio)pyridin-2-yl}carbamoyl)-5-(2-methoxyethyl)-4-methylthiophene-2-sulfonamide], the half-maximal inhibitory concentration (IC50) came out at 2260 nM. Regarding `COCCc1sc(S(=O)(=O)NC(=O)Nc2cc(SC)cc(NCCC(F)(F)F)n2)cc1C` [Compound 75, 5-(2-Methoxyethyl)-4-methyl-N-({4-(methylthio)-6-[(3,3,3-trifluoropropyl)amino]pyridin-2-yl}carbamoyl)thiophene-2-sulfonamide], the IC50 is 1690 nM. For the compound `CC(=O)OCCc1sc(S(=O)(=O)NC(=O)Nc2cc(C(F)(F)F)ccn2)cc1C` [Compound 77, 2-{3-Methyl-5-[({[4-(trifluoromethyl)pyridin-2-yl]carbamoyl}amino)sulfonyl]-2-thienyl}ethyl acetate], the half-maximal inhibitory concentration (IC50) turned out to be 809 nM. Take `Cc1cc(S(=O)(=O)NC(=O)Nc2cc(C(F)(F)F)ccn2)sc1CCO` [Compound 78, 5-(2-Hydroxyethyl)-4-methyl-N-{[4-(trifluoromethyl)pyridin-2-yl]carbamoyl}thiophene-2-sulfonamide]: the 50% inhibitory concentration (IC50) was 906 nM. In the case of `COCCc1sc(S(=O)(=O)NC(=O)Nc2cc(C(F)(F)F)c(F)c(N)n2)cc1C` [Compound 79, N-{[6-Amino-5-fluoro-4-(trifluoromethyl)pyridin-2-yl]carbamoyl}-5-(2-methoxyethyl)-4-methylthiophene-2-sulfonamide], the IC50 stood at 558 nM.

As for `C=C(C)CNc1cc(SC)cc(NC(=O)NS(=O)(=O)c2cc(C)c(CCOC)s2)n1` [Compound 80, 5-(2-Methoxyethyl)-4-methyl-N-({6-[(2-methylprop-2-en-1-yl)amino]-4-(methylthio)pyridin-2-yl}carbamoyl)thiophene-2-sulfonamide], the half-maximal inhibitory concentration (IC50) was determined as 1610 nM.

As to `CC(=O)OCCc1sc(S(=O)(=O)NC(=O)Nc2cc(C(F)(F)F)c(F)c(N)n2)cc1C` [Compound 81, 2-{5-[({[6-Amino-5-fluoro-4-(trifluoromethyl)pyridin-2-yl]carbamoyl}amino)sulfonyl]-3-methyl-2-thienyl}ethyl acetate], the half-maximal inhibitory concentration (IC50) was found to be 665 nM. For `Nc1cc(Br)cc(NC(=O)NS(=O)(=O)c2coc3ccccc23)n1` [Compound 82, N-[(6-Amino-4-bromopyridin-2-yl)carbamoyl]-1-benzofuran-3-sulfonamide], the half-maximal inhibitory concentration (IC50) is 1870 nM. `Nc1cc(Br)cc(NC(=O)NS(=O)(=O)c2coc3ccc(Br)cc23)n1` [Compound 83, N-[(6-Amino-4-bromopyridin-2-yl)carbamoyl]-5-bromo-1-benzofuran-3-sulfonamide]: the concentration for half-maximal inhibition (IC50) worked out at 5230 nM. In the case of `Cc1cc(S(=O)(=O)NC(=O)Nc2cc(C(F)(F)F)c(F)c(N)n2)sc1CCO` [Compound 84, N-{[6-Amino-5-fluoro-4-(trifluoromethyl)pyridin-2-yl]carbamoyl}-5-(2-hydroxyethyl)-4-methylthiophene-2-sulfonamide], the half-inhibitory concentration (IC50) came to 429 nM. As for `COCCc1sc(S(=O)(=O)NC(=O)Nc2cc(C(F)(F)F)cc(N)n2)cc1C` [Compound 85, N-{[6-Amino-4-(trifluoromethyl)pyridin-2-yl]carbamoyl}-5-(2-methoxyethyl)-4-methylthiophene-2-sulfonamide], the IC50 was 756 nM.

Turning to `COCCc1sc(S(=O)(=O)NC(=O)Nc2cc(SC)cc(C)n2)cc1C` [Compound 86, 5-(2-Methoxyethyl)-4-methyl-N-{[6-methyl-4-(methylthio)pyridin-2-yl]carbamoyl}thiophene-2-sulfonamide], the half-maximal inhibitory concentration (IC50) worked out at 1780 nM. As for `CSc1cc(N)nc(NC(=O)NS(=O)(=O)c2coc3ccc(Br)cc23)c1` [Compound 87, N-{[6-Amino-4-(methylthio)pyridin-2-yl]carbamoyl}-5-bromo-1-benzofuran-3-sulfonamide], the figure is 4760 nM. As for `COCCc1sc(S(=O)(=O)NC(=O)Nc2cc(SC)cc(C(=O)O)n2)cc1C` [Compound 88, Sodium-6-[({[5-(2-methoxyethyl)-4-methyl-2-thienyl]sulfonyl}carbamoyl)amino]-4-(methylthio)pyridine-2-carboxylate], the figure is 55400 nM; as for `CNC(=O)Nc1cc(SC)cc(NC(=O)NS(=O)(=O)c2coc3ccccc23)n1` [Compound 89, N-({6-[(Methylcarbamoyl)amino]-4-(methylthio)pyridin-2-yl}carbamoyl)-1-benzofuran-3-sulfonamide], 500 nM; as for `COCCc1sc(S(=O)(=O)NC(=O)Nc2cc(C(F)(F)F)cc(Cl)n2)cc1C` [Compound 90, N-{[6-chloro-4-(trifluoromethyl)pyridin-2-yl]carbamoyl}-5-(2-methoxyethyl)-4-methylthiophene-2-sulfonamide], 1060 nM. As for `COCCc1sc(S(=O)(=O)NC(=O)Nc2cc(C(F)(F)F)cc(C(=O)OC)n2)cc1C` [Compound 91, Methyl-6-[({[5-(2-methoxyethyl)-4-methyl-2-thienyl]sulfonyl}carbamoyl)amino]-4-(trifluoromethyl)pyridine-2-carboxylate], the IC50 is 2160 nM. On to `COC(=O)c1cc(C(F)(F)F)cc(NC(=O)NS(=O)(=O)c2cc(C)c(CCOC(C)=O)s2)n1` [Compound 92, Methyl-6-[({[5-(2-acetoxyethyl)-4-methyl-2-thienyl]sulfonyl}carbamoyl)amino]-4-(trifluoromethyl)pyridine-2-carboxylate], for which the IC50 is 1610 nM. The same measure for `CC(=O)OCCc1sc(S(=O)(=O)NC(=O)Nc2cc(C(F)(F)F)cc(Cl)n2)cc1C` [Compound 93, 2-{5-[({[6-chloro-4-(trifluoromethyl)pyridin-2-yl]carbamoyl}amino)sulfonyl]-3-methyl-2-thienyl}ethyl acetate]: 844 nM. As for `CNC(=O)Nc1cc([S+](C)[O-])cc(NC(=O)NS(=O)(=O)c2cc(C)c(CCOC)s2)n1` (stereo not shown) [Compound 94, 5-(2-Methoxyethyl)-4-methyl-N-({6-[(methylcarbamoyl)amino]-4-(methylsulfinyl)pyridin-2-yl}carbamoyl)thiophene-2-sulfonamide], the half-inhibitory concentration (IC50) is 1600 nM.

For `COCCc1sc(S(=O)(=O)NC(=O)Nc2cc([S+](C)[O-])cc(NC(N)=O)n2)cc1C` (stereo not shown) [Compound 95, N-{[6-(Carbamoylamino)-4-(methylsulfinyl)pyridin-2-yl]carbamoyl}-5-(2-methoxyethyl)-4-methylthiophene-2-sulfonamide], the IC50 was determined as 5080 nM. Turning to `COCCc1sc(S(=O)(=O)NC(=O)Nc2cc(C(F)(F)F)cc(C)n2)cc1C` [Compound 96, 5-(2-methoxyethyl)-4-methyl-N-{[6-methyl-4-(trifluoromethyl)pyridin-2-yl]carbamoyl}thiophene-2-sulfonamide], the IC50 is 527 nM. On to `CNC(=O)c1cc(C(F)(F)F)cc(NC(=O)NS(=O)(=O)c2cc(C)c(CCO)s2)n1` [Compound 97, Methyl-6-[({[5-(2-hydroxyethyl)-4-methyl-2-thienyl]sulfonyl}carbamoyl)amino]-4-(trifluoromethyl)pyridine-2-carboxamide], for which the IC50 is 278 nM. As for `COC(=O)c1cc(C(F)(F)F)cc(NC(=O)NS(=O)(=O)c2csc(C)c2)n1` [Compound 98, Methyl-6-({[(5-methyl-3-thienyl)sulfonyl]carbamoyl}amino)-4-(trifluoromethyl)pyridine-2-carboxylate], the IC50 came out at 2290 nM.

Take `CCOC(=O)c1cc(NC(=O)NC)nc(NC(=O)NS(=O)(=O)c2cc(C)c(CCOC)s2)c1` [Compound 99, Ethyl-2-[({[5-(2-methoxyethyl)-4-methyl-2-thienyl]sulfonyl}carbamoyl)amino]-6-[(methylcarbamoyl)amino]isonicotinate]: the 50% inhibitory concentration (IC50) worked out at 920 nM. For the compound `CCOC(=O)c1cc(N)nc(NC(=O)NS(=O)(=O)c2cc(C)c(CCOC)s2)c1` [Compound 100, Ethyl-2-amino-6-[({[5-(2-methoxyethyl)-4-methyl-2 thienyl]sulfonyl}carbamoyl)amino]isonicotinate], the half-maximal inhibitory concentration (IC50) is 3410 nM.

Regarding `CNC(=O)Nc1cc(C(N)=O)cc(NC(=O)NS(=O)(=O)c2cc(C)c(CCOC)s2)n1` [Compound 101, 2-[({[5-(2-Methoxyethyl)-4-methyl-2-thienyl]sulfonyl}carbamoyl)amino]-6-[(methylcarbamoyl)amino]isonicotinamide], the half-inhibitory concentration (IC50) is > 100000 nM.
